Experimental data published in patent publication US10308643B2, “Heterocyclic compound” (Takeda Pharmaceutical Company Limited, priority 2015, dated 2019).

What was measured:
Assay type in all cases: biochemical
HDAC6 enzyme = biological target: T1, HDAC6 enzyme (Homo sapiens, UniProt Q9UBN7); experiment: HDAC1/6 Enzyme Inhibitory Assay (HDAC-Glo I/II Assay kit), HDAC6; details: 1 μM test compound, wells without enzyme = 100% inhibition; for inhibition at 1 µM: read-out: HDAC6 inhibitory rate (%) (1 μM)
T1 construct: transducing full length HDAC1 and HDAC6 genes into Sf-9 insect cells; GST; purchased SignalChem; host or cells: Sf-9 insect cells
T1 sequence (Q9UBN7 1-1215): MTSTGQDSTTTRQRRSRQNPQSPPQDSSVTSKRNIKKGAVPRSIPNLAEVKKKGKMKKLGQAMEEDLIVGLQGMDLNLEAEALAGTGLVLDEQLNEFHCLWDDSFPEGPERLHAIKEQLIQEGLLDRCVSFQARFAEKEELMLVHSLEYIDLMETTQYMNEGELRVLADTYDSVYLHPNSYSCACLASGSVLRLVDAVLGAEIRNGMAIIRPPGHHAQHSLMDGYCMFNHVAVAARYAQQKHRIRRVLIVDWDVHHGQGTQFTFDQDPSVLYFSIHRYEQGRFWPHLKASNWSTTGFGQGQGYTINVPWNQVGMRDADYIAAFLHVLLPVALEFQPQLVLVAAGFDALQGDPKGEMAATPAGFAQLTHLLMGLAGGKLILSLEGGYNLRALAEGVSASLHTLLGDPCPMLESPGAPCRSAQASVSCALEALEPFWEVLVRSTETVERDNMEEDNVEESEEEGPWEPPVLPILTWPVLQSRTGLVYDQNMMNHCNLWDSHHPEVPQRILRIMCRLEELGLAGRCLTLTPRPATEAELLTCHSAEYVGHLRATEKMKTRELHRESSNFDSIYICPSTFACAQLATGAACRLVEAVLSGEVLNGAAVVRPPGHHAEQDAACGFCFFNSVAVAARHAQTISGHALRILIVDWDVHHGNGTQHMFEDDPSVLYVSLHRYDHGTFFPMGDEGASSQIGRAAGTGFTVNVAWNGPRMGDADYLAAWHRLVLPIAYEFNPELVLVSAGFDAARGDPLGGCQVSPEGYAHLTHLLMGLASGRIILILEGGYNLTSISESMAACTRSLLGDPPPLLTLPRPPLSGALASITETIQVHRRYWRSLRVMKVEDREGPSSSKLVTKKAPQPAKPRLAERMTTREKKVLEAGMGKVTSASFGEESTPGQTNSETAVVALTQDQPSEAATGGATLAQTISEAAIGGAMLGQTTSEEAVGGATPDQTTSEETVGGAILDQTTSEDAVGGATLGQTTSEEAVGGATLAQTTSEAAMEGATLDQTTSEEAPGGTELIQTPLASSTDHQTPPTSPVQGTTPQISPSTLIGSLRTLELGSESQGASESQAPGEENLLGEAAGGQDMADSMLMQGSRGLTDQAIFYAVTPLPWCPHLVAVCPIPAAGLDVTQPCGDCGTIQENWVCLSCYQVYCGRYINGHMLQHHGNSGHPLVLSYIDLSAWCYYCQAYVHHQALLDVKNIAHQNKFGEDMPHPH
Description: (§1) HDAC1/6 Enzyme Inhibitory Assay
(§2) HDAC1 enzyme and HDAC6 enzyme each prepared by transducing full length HDAC1 and HDAC6 genes into Sf-9 insect cells and purifying by GST affinity column were purchased from SignalChem. Using these enzymes, HDAC1 and/or HDAC6 enzyme inhibitory activities of the compound of the present invention were evaluated. Enzymes were used after preserved at −70° C. HDAC1 or HDAC6 enzyme inhibitory activity of the compound of the present invention was measured using HDAC-Glo™ I/II Assay kit (Promega) according to the following experimental method. The test compound diluted with assay buffer (24 mM Tris-HCl (pH 7.5), 1 mM MgCl2, 0.35 mM KCl, 135 mM NaCl, 0.6 mM Glutathione, 0.01% Tween-20) was added to a 384-well plate by each 2 μL. Then, HDAC1 or HDAC6 enzyme solution diluted with assay buffer was added thereto by each 4 μL, and the plate was incubated at room temperature for 60 min. After incubated, HDAC substrate-Developer solution prepared according to Promega protocol attached to the assay kit was added to the 384-well plate by each 2 μL, and the enzyme reaction was started. After reacting at room temperature for 20 min, luminescence level was measured using plate reader Envision (PerkinElmer). The inhibitory activity of each compound was calculated as a relative activity value when luminescence level in wells without enzyme is considered as 100% inhibition.

HDAC9 enzyme = biological target: T2, HDAC9 enzyme (Homo sapiens, UniProt Q9UKV0); experiment: HDAC9 Enzyme Inhibitory Assay (HDAC-Glo class IIa); details: 1 μM test compound, wells without enzyme = 100% inhibition; for inhibition at 1 µM: read-out: HDAC9 inhibitory rate (%) (1 μM)
T2 construct: transducing full length HDAC9 gene into Sf-9 insect cells; made in house; host or cells: Sf-9 insect cells
Description: HDAC9 Enzyme Inhibitory Assay
Enzyme was prepared by transducing full length HDAC9 gene into Sf-9 insect cells and purifying by Ni-NTA affinity column, and HDAC9 enzyme inhibitory activity was evaluated. Enzymes were used after preserved at −70° C. HDAC9 enzyme inhibitory activity of the test compound was measured using HDAC-Glo class IIa (Promega) according to the following experimental method. The test compound diluted with assay buffer (24 mM Tris-HCl (pH 7.5), 1 mM MgCl2, 0.35 mM KCl, 135 mM NaCl, 0.6 mM Glutathione, 0.01% Tween-20) was added to a 384-well plate by each 2 μL. Then, HDAC9 enzyme solution diluted with assay buffer was added thereto by each 2 μL, and the plate was incubated at room temperature for 60 min. After incubated, HDAC substrate-Developer solution prepared according to Promega protocol was added to the 384-well plate by each 4 μL, and the enzyme reaction was started. After reacting at room temperature for 20 min, luminescence level was measured using plate reader Envision (PerkinElmer). The inhibitory activity of each compound was calculated as a relative activity value when luminescence level in wells without enzyme is considered as 100% inhibition.

HDAC1 enzyme = biological target: T3, HDAC1 enzyme (Homo sapiens, UniProt Q13547); experiment: HDAC1/6 Enzyme Inhibitory Assay (HDAC-Glo I/II Assay kit), HDAC1; details: 1 μM test compound, wells without enzyme = 100% inhibition; for inhibition at 1 µM: read-out: HDAC1 inhibitory rate (%) (1 μM)
T3 construct: transducing full length HDAC1 and HDAC6 genes into Sf-9 insect cells; GST; purchased SignalChem; host or cells: Sf-9 insect cells
Description: as §1, §2

T3 sequence (Q13547 whole entry): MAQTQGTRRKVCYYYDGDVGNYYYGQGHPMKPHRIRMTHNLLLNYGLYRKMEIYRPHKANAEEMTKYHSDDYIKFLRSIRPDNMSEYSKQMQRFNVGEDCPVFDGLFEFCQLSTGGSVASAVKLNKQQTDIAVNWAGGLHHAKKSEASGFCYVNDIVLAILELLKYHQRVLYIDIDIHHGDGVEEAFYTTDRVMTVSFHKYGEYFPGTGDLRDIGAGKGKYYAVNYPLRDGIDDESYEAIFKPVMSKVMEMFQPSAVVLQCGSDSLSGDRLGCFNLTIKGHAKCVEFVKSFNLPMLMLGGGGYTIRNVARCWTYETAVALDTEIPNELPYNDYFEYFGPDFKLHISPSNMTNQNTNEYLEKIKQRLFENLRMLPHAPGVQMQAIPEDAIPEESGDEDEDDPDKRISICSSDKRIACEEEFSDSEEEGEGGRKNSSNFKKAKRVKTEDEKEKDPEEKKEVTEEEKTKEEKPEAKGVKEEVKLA
T2 sequence (Q9UKV0 whole entry, species assumed): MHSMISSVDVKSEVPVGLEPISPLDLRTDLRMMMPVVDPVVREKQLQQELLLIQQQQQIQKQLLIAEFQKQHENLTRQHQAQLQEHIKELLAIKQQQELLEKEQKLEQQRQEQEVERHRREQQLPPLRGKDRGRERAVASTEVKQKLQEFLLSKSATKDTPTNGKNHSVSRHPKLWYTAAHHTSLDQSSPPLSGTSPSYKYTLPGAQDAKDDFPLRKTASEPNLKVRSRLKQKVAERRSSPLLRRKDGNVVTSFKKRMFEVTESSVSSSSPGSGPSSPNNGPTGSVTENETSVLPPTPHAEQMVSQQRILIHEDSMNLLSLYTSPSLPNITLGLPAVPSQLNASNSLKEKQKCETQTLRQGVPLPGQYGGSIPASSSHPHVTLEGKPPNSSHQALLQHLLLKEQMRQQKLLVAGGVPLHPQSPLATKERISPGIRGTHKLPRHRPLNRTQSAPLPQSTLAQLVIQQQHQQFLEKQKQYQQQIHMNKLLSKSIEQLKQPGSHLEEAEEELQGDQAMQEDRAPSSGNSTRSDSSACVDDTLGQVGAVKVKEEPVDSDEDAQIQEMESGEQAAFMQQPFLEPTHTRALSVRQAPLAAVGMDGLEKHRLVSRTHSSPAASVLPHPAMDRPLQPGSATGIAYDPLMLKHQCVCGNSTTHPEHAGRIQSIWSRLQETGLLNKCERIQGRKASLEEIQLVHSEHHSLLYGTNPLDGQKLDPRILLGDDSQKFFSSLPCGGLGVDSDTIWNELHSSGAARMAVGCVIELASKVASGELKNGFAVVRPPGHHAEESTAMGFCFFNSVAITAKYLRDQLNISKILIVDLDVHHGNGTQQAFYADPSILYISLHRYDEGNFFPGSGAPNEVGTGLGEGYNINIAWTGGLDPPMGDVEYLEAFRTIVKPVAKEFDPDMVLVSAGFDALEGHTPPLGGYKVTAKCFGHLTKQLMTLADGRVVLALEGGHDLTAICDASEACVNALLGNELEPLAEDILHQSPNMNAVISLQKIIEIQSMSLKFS

SMILES | inhibition at 1 µM (HDAC6 enzyme) [%] | inhibition at 1 µM (HDAC9 enzyme) [%] | inhibition at 1 µM (HDAC1 enzyme) [%] | HDAC6 inhibitory rate (%) (1 μM) (HDAC6 enzyme) | HDAC9 inhibitory rate (%) (1 μM) (HDAC9 enzyme; 1 µM) | HDAC1 inhibitory rate (%) (1 μM) (HDAC1 enzyme; 1 µM)
CC(C)(C)OC(=O)N1C[C@@H](N2Cc3ccc(-c4noc(C(F)(F)F)n4)cc3C2=O)[C@H](c2ccccc2)C1 (relative stereo) [Example 2, tert-butyl trans-3-(1-oxo-6-(5-(trifluoromethyl)-1,2,4-oxadiazol-3-yl)-1,3-dihydro-2H-isoindol-2-yl)-4-phenylpyrrolidine-1-carboxylate] | 98 | 90 | 33 |  |  | 
O=C1c2cc(-c3noc(C(F)(F)F)n3)ccc2CN1[C@@H]1CNC[C@H]1c1ccccc1 (relative stereo) [Example 3, trans-2-(4-phenylpyrrolidin-3-yl)-6-(5-(trifluoromethyl)-1,2,4-oxadiazol-3-yl)isoindolin-1-one] | 96 | 98 | 87 |  |  | 
CC(=O)N1C[C@@H](N2Cc3ccc(-c4noc(C(F)(F)F)n4)cc3C2=O)[C@H](c2ccccc2)C1 (relative stereo) [Example 4, trans-2-(1-acetyl-4-phenylpyrrolidin-3-yl)-6-(5-(trifluoromethyl)-1,2,4-oxadiazol-3-yl)isoindolin-1-one] | 99 | 96 | 69 |  |  | 
O=C1c2cc(-c3noc(C(F)(F)F)n3)ccc2CN1[C@@H]1CCOC[C@H]1c1ccccc1 (relative stereo) [Example 5, trans-2-(3-phenyltetrahydro-2H-pyran-4-yl)-6-(5-(trifluoromethyl)-1,2,4-oxadiazol-3-yl)isoindolin-1-one] |  |  |  | 99 | 95 | 78
CC(C)(C)OC(=O)N[C@@H]1CCCC[C@H]1N1Cc2ccc(-c3noc(C(F)(F)F)n3)cc2C1=O (relative stereo) [Example 6, tert-butyl trans-(2-(1-oxo-6-(5-(trifluoromethyl)-1,2,4-oxadiazol-3-yl)-1,3-dihydro-2H-isoindol-2-yl)cyclohexyl)carbamate] | 95 | 65 | 9 |  |  | 
N[C@@H]1CCCC[C@H]1N1Cc2ccc(-c3noc(C(F)(F)F)n3)cc2C1=O (relative stereo) [Example 7, trans-2-(2-aminocyclohexyl)-6-(5-(trifluoromethyl)-1,2,4-oxadiazol-3-yl)isoindolin-1-one] | 76 | 72 | 6 |  |  | 
CC(=O)N[C@@H]1CCCC[C@H]1N1Cc2ccc(-c3noc(C(F)(F)F)n3)cc2C1=O (relative stereo) [Example 8, trans-N-(2-(1-oxo-6-(5-(trifluoromethyl)-1,2,4-oxadiazol-3-yl)-1,3-dihydro-2H-isoindol-2-yl)cyclohexyl)acetamide] | 98 | 43 | 10 |  |  | 
O=C(N[C@@H]1CCCC[C@H]1N1Cc2ccc(-c3noc(C(F)(F)F)n3)cc2C1=O)c1ccccc1 (relative stereo) [Example 9, trans-N-(2-(1-oxo-6-(5-(trifluoromethyl)-1,2,4-oxadiazol-3-yl)-1,3-dihydro-2H-isoindol-2-yl)cyclohexyl)benzamide] | 97 | 89 | 54 |  |  | 
O=C(c1ccccc1)N1C[C@@H](N2Cc3ccc(-c4noc(C(F)(F)F)n4)cc3C2=O)[C@H](c2ccccc2)C1 (relative stereo) [Example 10, trans-2-(1-benzoyl-4-phenylpyrrolidin-3-yl)-6-(5-(trifluoromethyl)-1,2,4-oxadiazol-3-yl)isoindolin-1-one] | 96 | 96 | 63 |  |  | 
O=C(C1CC1)N1C[C@@H](N2Cc3ccc(-c4noc(C(F)(F)F)n4)cc3C2=O)[C@H](c2ccccc2)C1 (relative stereo) [Example 11, trans-2-(1-(cyclopropylcarbonyl)-4-phenylpyrrolidin-3-yl)-6-(5-(trifluoromethyl)-1,2,4-oxadiazol-3-yl)isoindolin-1-one] | 100 | 95 | 70 |  |  | 
O=C(N[C@@H]1CCCC[C@H]1N1Cc2ccc(-c3noc(C(F)(F)F)n3)cc2C1=O)C1CC1 (relative stereo) [Example 12, trans-N-(2-(1-oxo-6-(5-(trifluoromethyl)-1,2,4-oxadiazol-3-yl)-1,3-dihydro-2H-isoindol-2-yl)cyclohexyl)cyclopropanecarboxamide] | 98 | 48 | 9 |  |  | 
O=C1c2cc(-c3noc(C(F)(F)F)n3)ccc2CN1[C@@H]1CCCC[C@H]1c1ccccc1 (relative stereo) [Example 17, trans-2-(2-phenylcyclohexyl)-6-(5-(trifluoromethyl)-1,2,4-oxadiazol-3-yl)isoindolin-1-one] | 98 | 85 | 52 |  |  | 
O=C1CCCN1[C@@H]1CCCC[C@H]1N1Cc2ccc(-c3noc(C(F)(F)F)n3)cc2C1=O (relative stereo) [Example 18, trans-2-(2-(2-oxopyrrolidin-1-yl)cyclohexyl)-6-(5-(trifluoromethyl)-1,2,4-oxadiazol-3-yl)isoindolin-1-one] | 99 | 47 |  |  |  | 
O=C1c2ccc(-c3noc(C(F)(F)F)n3)cc2CN1c1ccccc1 [Example 1, 2-phenyl-5-(5-(trifluoromethyl)-1,2,4-oxadiazol-3-yl)isoindolin-1-one] | 8 | 55 |  |  |  | 
O=C1CCCN1[C@@H]1CCCC[C@H]1N1Cc2ccc(-c3noc(C(F)(F)F)n3)cc2C1=O [Example 191, 2-((1R,2R)-2-(2-oxopyrrolidin-1-yl)cyclohexyl)-6-(5-(trifluoromethyl)-1,2,4-oxadiazol-3-yl)isoindolin-1-one] | 99 | 66 |  |  |  | 
